Data published in patent publication US8637038B2, “Methods for inhibiting allograft rejection” (Rigel Pharmaceuticals, Inc., priority 2011, dated 2014).
Read-outs that look alike come from different tables or passages of the source.

Key:
[1] = In vivo pharmacokinetics, plasma levels by LC/MS/MS; parameters: species or system Lewis rats; conditions: for time of peak plasma level after administration: male Lewis rats
Description: Male Lewis rats were orally administered at dosages of Compound I HD (60 mg/kg/BID); Compound I LD (15 mg/kg/BID); Compound III HD (20 mg/kg/BID), and Compound III LD (5 mg/kg/BID), respectively. Plasma levels of drugs were quantified 0.5, 1, 1.5, 2, 3, 4, 6, 8, and 10 hours after administration. Plasma levels of Compound I and Compound III were quantified by LC/MS/MS.
Pharmacokinetics were performed in male Lewis rats. Plasma levels were measured within a 10 hour period. Resulting plasma concentrations of Compound I HD (60 mg/kg BID), Compound I LD (15 mg/kg BID), Compound III HD (20 mg/kg BID), and Compound III LD (5 mg/kg BID) are depicted in FIG. 1. Compound I HD and Compound I LD plasma levels peaked 1.5-2 hours after administration. Compound III HD plasma levels peaked after 3-3.5 hours and Compound III LD levels 2 hours after administration.

VEGFR2 = biological target: T1, VEGFR2 (Homo sapiens, UniProt P35968); assay: VEGF HUVEC phospho-VEGFR2; format: cell-based
T1 construct: endogenous in cells; host or cells: HUVEC (human umbilical vein endothelial cells)
T1 sequence (P35968 20-1356): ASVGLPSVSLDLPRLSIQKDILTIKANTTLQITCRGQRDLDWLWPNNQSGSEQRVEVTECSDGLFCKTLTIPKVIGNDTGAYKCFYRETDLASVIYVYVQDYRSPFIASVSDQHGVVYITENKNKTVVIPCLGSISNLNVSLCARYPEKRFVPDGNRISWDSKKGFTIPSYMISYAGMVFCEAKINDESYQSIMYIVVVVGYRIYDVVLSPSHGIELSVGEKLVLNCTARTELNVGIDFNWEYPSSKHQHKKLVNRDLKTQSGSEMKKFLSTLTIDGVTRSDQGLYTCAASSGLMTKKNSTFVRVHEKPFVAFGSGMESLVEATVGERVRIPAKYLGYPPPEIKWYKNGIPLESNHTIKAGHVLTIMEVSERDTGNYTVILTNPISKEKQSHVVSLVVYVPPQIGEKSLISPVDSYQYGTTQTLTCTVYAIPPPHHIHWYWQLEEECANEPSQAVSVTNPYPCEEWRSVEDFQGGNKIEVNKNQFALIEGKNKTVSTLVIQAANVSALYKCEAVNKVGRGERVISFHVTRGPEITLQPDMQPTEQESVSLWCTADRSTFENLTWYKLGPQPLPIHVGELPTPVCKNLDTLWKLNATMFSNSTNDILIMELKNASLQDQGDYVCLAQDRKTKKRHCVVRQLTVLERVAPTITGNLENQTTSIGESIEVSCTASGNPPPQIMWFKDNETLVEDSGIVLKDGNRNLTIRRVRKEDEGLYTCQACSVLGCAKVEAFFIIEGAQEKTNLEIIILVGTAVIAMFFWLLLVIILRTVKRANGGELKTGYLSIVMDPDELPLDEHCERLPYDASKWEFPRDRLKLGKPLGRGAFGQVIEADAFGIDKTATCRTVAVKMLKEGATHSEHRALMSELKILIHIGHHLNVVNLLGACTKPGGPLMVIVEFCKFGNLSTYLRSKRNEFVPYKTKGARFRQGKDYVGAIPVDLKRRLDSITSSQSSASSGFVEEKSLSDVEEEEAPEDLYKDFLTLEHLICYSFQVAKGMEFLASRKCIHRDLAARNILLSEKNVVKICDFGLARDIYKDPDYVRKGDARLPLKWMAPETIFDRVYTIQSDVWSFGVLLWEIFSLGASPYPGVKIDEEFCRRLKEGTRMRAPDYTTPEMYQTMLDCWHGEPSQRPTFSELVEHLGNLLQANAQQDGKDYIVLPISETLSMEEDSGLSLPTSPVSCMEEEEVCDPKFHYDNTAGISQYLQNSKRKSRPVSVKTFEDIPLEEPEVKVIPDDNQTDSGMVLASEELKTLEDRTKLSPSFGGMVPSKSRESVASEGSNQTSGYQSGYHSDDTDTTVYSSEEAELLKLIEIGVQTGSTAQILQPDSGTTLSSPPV
Description: (§1) Growth factor-dependent protein phosphorylation was detected in HeLa cells by staining permeabilized cells with phospho-specific antibodies and quantified by chemiluminescence (Luminator, Wallac Multilabel Counter; Perkin Elmer). Akt phosphorylation was measured following insulin stimulation and EGFR phosphorylation was measured following EGF stimulation (Phospho-AKT, Cell signaling technology, Danvers, Mass.; 1 μM Insulin, Millipore, Billerica, Mass.; Phospho-EGFR, tyr1173, clone 53A3, Cell Signaling Technology; 200 ng/ml recombinant human EGF, PeproTech, Hamburg, Germany). Human umbilical vein endothelial cells (HUVECs) were stimulated with VEGF and VEGFR2 phosphorylation was assessed by ELISA (100 ng/ml VEGF165, R&D Systems; Rabbit anti-phospho-VEGFR2 mAb, Cell Signaling Technology).

JAK1/3 = assay: IL-2-dependent human primary T cell proliferation; format: cell-based
Description: The activity of Compound III and Compound I was assessed in a panel of cell-based assays. Compound III and Compound I are selective inhibitors of JAK1/3-dependent signaling. Data for a non-selective JAK inhibitor (Compound IV) is shown for reference. Mixed lymphocyte reactions (MLRs) were performed by incubating freshly prepared naive human peripheral blood lymphocytes from one donor with CD80+/CD86+ mature Dendritic Cells derived from a different donor for 5 days. The percentage of CD3+/CD71+ (anti-CD3-APC, Clone HIT3a, anti-CD 71-FITC, Clone M-A712; BD Biosciences, San Jose, Calif.) proliferating cells was assessed by fluorescence-activated cell sorting (FACS; BD Bioscience). Interleukin-2 (IL-2)-dependent human primary T cell proliferation was assessed using CellTiter-Glo® Luminescent Cell Viability Assay (Promega, Madison, Wis.). STAT phosphorylation induced by different cytokines in human primary T cells was measured by intracellular FACS analysis (anti-pY694-STAT5 AlexaFluor488, anti-pY701-STAT1 AlexaFluor488, and anti-pY693-STAT4 AlexaFluor488; BD Biosciences). […] Interferon-γ (IFN-γ) signaling was assessed in the U937 monocytic cell line by measuring ICAM-1 surface expression by FACS (ICAM-1-APC, BD Bioscience).

Lck/AZP70 = assay: Anti-CD3/CD28 T cell IL-2 production; format: cell-based; conditions: Homo sapiens
Description: (§2) The erythropoietin (EPO)-dependent survival of cultured human erythroid progenitor cells (CHEPs) was determined using CellTiter-Glo® Luminescent Cell Viability Assay (Promega). Human primary T cell activation was assessed by measuring IL-2 production by ELISA (R&D Systems, Minneapolis, Minn., USA) following plate-bound anti-CD3 and anti-CD28 stimulation (Anti-Human CD3; BD Biosciences; Anti-Human CD28; Immunotech; Prague, Czech Republic). The enzymatic activity of tryptase released by human cultured mast cells (CHMCs) upon stimulation with IgE was quantified by cleavage of the synthetic fluorescent peptide substrate Z-Ala-Lys-Arg-7-amino-4-methylcoumarin (MP Biomedicals, Solon, Ohio, USA) in tryptase buffer. B-cell receptor-dependent Erk phosphorylation was measured in Ramos cells by intracellular FACS (anti-pT202/pY204-ERK1/2-AlexaFluor488; BD Biosciences). Cell proliferation assays were performed using A549 epithelial cells and H1299 lung carcinoma cells using nuclear staining to measure cell numbers (4′6-diamidino-2-phenylindole, dihydrochloride (DAPI; Invitrogen, Darmstadt, Germany)).

A549 epithelial cells = assay: A549 proliferation; format: cell-based; conditions: Homo sapiens
Description: as §2

Syk = assay: Anti-IgM Ramos phospho-Erk; format: cell-based; conditions: Homo sapiens, read-out: Anti-IgM Ramos phospho-Erk EC50
Description: as §2

[2] = system: Syk, Lck, ZAP-70, VEGFR, INSR, EGFR and serine threonine kinases; assay: Panel of cell-based assays against non-JAK kinase targets
Description: as §2, with “Cell proliferation assays were performed using A549 epithelial cells and H1299 lung carcinoma cells using nuclear staining to measure cell numbers (4′6-diamidino-2-phenylindole, dihydrochloride (DAPI; Invitrogen, Darmstadt, Germany)).” left out
Growth factor-dependent protein phosphorylation was detected in HeLa cells by staining permeabilized cells with phospho-specific antibodies and quantified by chemiluminescence (Luminator, Wallac Multilabel Counter; Perkin Elmer). […] Human umbilical vein endothelial cells (HUVECs) were stimulated with VEGF and VEGFR2 phosphorylation was assessed by ELISA (100 ng/ml VEGF165, R&D Systems; Rabbit anti-phospho-VEGFR2 mAb, Cell Signaling Technology). […]

EGFR = biological target: T2, EGFR (Homo sapiens, UniProt P00533); assay: EGF HeLa phospho-EGFR; format: cell-based
T2 construct: Growth factor-dependent protein phosphorylation was detected in HeLa cells; endogenous in cells; host or cells: HeLa
T2 sequence (P00533 25-1210): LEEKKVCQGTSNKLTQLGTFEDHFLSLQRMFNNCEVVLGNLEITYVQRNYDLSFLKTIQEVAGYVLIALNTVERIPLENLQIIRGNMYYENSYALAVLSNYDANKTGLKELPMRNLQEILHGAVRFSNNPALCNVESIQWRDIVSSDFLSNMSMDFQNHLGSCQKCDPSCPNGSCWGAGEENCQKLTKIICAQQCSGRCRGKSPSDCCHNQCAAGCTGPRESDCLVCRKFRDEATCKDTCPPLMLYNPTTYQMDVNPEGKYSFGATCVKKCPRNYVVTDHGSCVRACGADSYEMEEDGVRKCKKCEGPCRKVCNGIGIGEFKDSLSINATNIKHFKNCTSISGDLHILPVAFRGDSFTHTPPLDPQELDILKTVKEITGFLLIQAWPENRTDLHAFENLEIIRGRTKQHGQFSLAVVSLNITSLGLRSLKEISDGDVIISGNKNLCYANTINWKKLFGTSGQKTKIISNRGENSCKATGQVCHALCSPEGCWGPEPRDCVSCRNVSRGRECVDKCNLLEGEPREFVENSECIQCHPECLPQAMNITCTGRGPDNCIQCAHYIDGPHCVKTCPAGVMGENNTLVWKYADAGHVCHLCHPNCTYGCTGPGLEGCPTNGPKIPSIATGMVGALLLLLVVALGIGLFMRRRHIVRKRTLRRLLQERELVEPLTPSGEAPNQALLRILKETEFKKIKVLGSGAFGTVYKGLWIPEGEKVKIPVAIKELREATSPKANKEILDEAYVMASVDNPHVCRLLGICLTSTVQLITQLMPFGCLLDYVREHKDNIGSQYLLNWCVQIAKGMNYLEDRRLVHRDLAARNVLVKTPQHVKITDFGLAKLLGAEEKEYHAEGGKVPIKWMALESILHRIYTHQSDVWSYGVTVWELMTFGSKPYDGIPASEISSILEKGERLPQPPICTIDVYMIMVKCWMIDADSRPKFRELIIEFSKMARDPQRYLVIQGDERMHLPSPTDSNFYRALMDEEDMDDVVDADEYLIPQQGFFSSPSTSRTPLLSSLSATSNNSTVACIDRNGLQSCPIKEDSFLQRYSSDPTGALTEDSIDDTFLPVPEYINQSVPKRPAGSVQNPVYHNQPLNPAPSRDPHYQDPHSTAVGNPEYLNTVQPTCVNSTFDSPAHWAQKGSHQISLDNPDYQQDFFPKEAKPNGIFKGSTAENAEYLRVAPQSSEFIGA
Description: as §1

JAK2 = assay: EPO-dependent survival of cultured human erythroid progenitor cells (CHEP); format: cell-based; conditions: for EC50: Homo sapiens, Erythroid progenitor cell, read-out: EPO CHEP Survival EC50
Description: as §2

[3] = HD oral: Compound I 60 mg/kg BID, Compound III 20 mg/kg BID
[4] = LD oral: Compound I 15 mg/kg BID, Compound III 5 mg/kg BID

Row | SMILES | time of peak plasma level after administration [1, 3] [h] | time of peak plasma level after administration [1, 4] [h] | EC50 (VEGFR2) [nM] | EC50 (JAK1/3; upstream kinases JAK1/3, read-out: IL-2 T cell proliferation EC50) [nM] | EC50 (Lck/AZP70; upstream kinases Lck/AZP70, read-out: Anti-CD3/CD28 T cell IL-2 production EC50) [nM] | EC50 (A549 epithelial cells; A549, upstream kinases Multiple, read-out: A549 proliferation EC50) [nM] | EC50 (Syk; upstream kinase Syk) [nM] | inhibition of other (non-JAK) kinase targets in cells [2] | EGF HeLa phospho-EGFR EC50 (EGFR) | inhibition of JAK2-dependent CHEP differentiation and survival in response to EPO (JAK2) | EC50 (JAK2; upstream kinase JAK2) [nM] | AUC of HD group relative to LD group ([1]; Compound I 60 vs 15 mg/kg BID, Compound III 20 vs 5 mg/kg BID, 10 hour period) [fold] | EC50 (JAK1/3; read-out: IL-2 T cell proliferation EC50) [nM] | EC50 (Lck/AZP70; read-out: Anti-CD3/CD28 T cell IL-2 production EC50) [nM] | EC50 (A549 epithelial cells; A549, read-out: A549 proliferation EC50) [nM] | EC50 (Syk) [nM] | EC50 (JAK2) [nM]
1 | COc1cc(Nc2ncc(C)c(Nc3ccc4oc(=O)[nH]c4c3)n2)cc(C)c1F [Compound I, 5-(2-(4-fluoro-3-methoxy-5-methylphenylamino)-5-methylpyrimidin-4-ylamino)benzo[d]oxazol-2(3H)-one] | 1.5 to 2 | 1.5 to 2 | 17800 ± 3870 | 21 ± 7 | 2860 ± 118 | 1860 ± 251 | 1440 ± 586 | very limited inhibition | Inactive | limited inhibition | 490 ± 246 |  |  |  |  |  | 
2 | COc1cc(Nc2ncc(C)c(Nc3ccc4oc(=O)[nH]c4c3)n2)cc(C)c1C [Compound III, 5-(2-(3-methoxy-4,5-dimethylphenylamino)-5-methylpyrimidin-4-ylamino)benzol[d]oxazol-2-(3H)-one] | 3 to 3.5 | 2 | 29300 ± 14300 |  |  |  |  | very limited inhibition | Inactive | limited inhibition |  | > 22 | 30 ± 13 | 19700 ± 2900 | 5420 ± 3040 | 1280 ± 190 | 1110 ± 339
